Assays:
[1] = Cytotoxicity against HEK293 cells assessed as inhibition of cell growth incubated for 48 hrs by resazurin dye based assay; assay type: toxicity; settings: human
[2] = system: Leishmania donovani; assay: Antileishmanial activity against Leishmania donovani 9515 amastigote infected in human THP-1 cells assessed as static activity by measuring inhibition of parasite growth incubated for 72 hrs by resazurin dye based assay; assay type: functional, organism-based; settings: Leishmania donovani, 9515, THP-1, 72 h
[3] = system: Leishmania major; assay: Antileishmanial activity against Leishmania major IR-173 promastigotes assessed as inhibition of parasite growth incubated for 48 hrs by resazurin dye based assay; assay type: functional, organism-based; settings: IR-173, 48 h
[4] = Selectivity index, ratio of IC50 for cytotoxicity against HEK293 cells to IC50 for antileishmanial activity against Leishmania major IR-173 promastigotes; assay type: toxicity, cell-based; settings: human, read-out: Ratio IC50
[5] = system: Leishmania major; assay: Antileishmanial activity against Leishmania major IR-173 amastigote infected in human THP-1 cells assessed as static activity by measuring inhibition of parasite growth incubated for 72 hrs by resazurin dye based assay; assay type: functional, organism-based; settings: IR-173, THP-1, 72 h
[6] = system: Leishmania major; assay: Leishmanicidal activity against Leishmania major IR-173 amastigote infected in human THP-1 cells incubated for 72 hrs by resazurin dye based analysis; assay type: functional, organism-based; settings: IR-173, THP-1, 72 h
[7] = system: Leishmania donovani; assay: Antileishmanial activity against Leishmania donovani 9515 promastigotes assessed as inhibition of parasite growth incubated for 48 hrs by resazurin dye based assay; assay type: functional, organism-based; settings: Leishmania donovani, 9515, 48 h
[8] = system: Leishmania donovani; assay: Leishmanicidal activity against Leishmania donovani 9515 amastigote infected in human THP-1 cells incubated for 72 hrs by resazurin dye based analysis; assay type: functional, organism-based; settings: Leishmania donovani, 9515, THP-1, 72 h
[9] = Selectivity index, ratio of IC50 for cytotoxicity against HEK293 cells to IC50 for antileishmanial activity against Leishmania donovani 9515 promastigotes; assay type: toxicity, cell-based; settings: human, read-out: Ratio IC50
[10] = Selectivity index, ratio of IC50 for antileishmanial activity against Leishmania major IR-173 promastigotes to IC50 for antileishmanial activity against Leishmania major IR-173 amastigote infected in human THP-1 cells assessed as static activity; assay type: functional
[11] = in vitro; settings: African green monkey, Vero cells
[12] = in vitro; settings: human, THP-1 cells
[13] = in vitro; settings: monkey, Vero cells
Description: Selectivity index, ratio of IC50 for cytotoxicity against African green monkey Vero cells to IC50 for antileishmanial activity against Leishmania major IR-173 amastigote infected in human THP-1 cells assessed as static activity

[14] = Selectivity index, ratio of IC50 for cytotoxicity against African green monkey Vero cells to IC50 for leishmanicidal activity against Leishmania major […] amastigote infected in human THP-1 cells; assay type: toxicity, cell-based; settings: read-out: Ratio IC50
[15] = Selectivity index, ratio of IC50 for antileishmanial activity against Leishmania major IR-173 promastigotes to IC50 for leishmanicidal activity against Leishmania major IR-173 amastigote infected in human THP-1 cells; assay type: functional

SMILES | IC50 at 48 h [1] | IC50 [2] | IC50 [3] | selectivity ratio [4] | IC50 [5] | IC50 [6] | IC50 [7] | IC50 [8] | selectivity ratio [9] | Ratio IC50 [10] | IC50 at 48 h [11] | IC50 at 48 h [12] | selectivity ratio [13] | selectivity ratio [14] | Ratio IC50 [15]
O=C1CN(/N=C/c2ccc([N+](=O)[O-])o2)C(=O)N1CCCCCCn1cc(-c2ccc(F)cc2)nn1 | 8.97 µM | > 10 µM | 220 nM | 40 | > 10 µM | > 10 µM | > 10000 nM | > 10 µM | – | – | – | – | – | – | –
CCCCCc1ccc(-c2cn(CCCCCCN3C(=O)CN(/N=C/c4ccc([N+](=O)[O-])o4)C3=O)nn2)cc1 | – | > 10 µM | 2190 nM | – | > 10 µM | > 10 µM | 50 nM | > 10 µM | – | – | – | – | – | – | –
COc1ccc(-c2cn(CCCCCN3C(=O)CN(/N=C/c4ccc([N+](=O)[O-])o4)C3=O)nn2)cc1 | 22.7 µM | > 10 µM | 500 nM | 45 | > 10 µM | > 10 µM | > 10000 nM | > 10 µM | – | – | – | – | – | – | –
O=C1CN(/N=C/c2ccc([N+](=O)[O-])o2)C(=O)N1CCCCCCn1cc(CSc2ccccc2)nn1 | 19.6 µM | > 10 µM | 2750 nM | 7 | > 10 µM | > 10 µM | 60 nM | > 10 µM | 327 | – | – | – | – | – | –
O=C1CN(/N=C/c2ccc([N+](=O)[O-])o2)C(=O)N1CCCCCn1cc(-c2cc(C(F)(F)F)cc(C(F)(F)F)c2)nn1 | 17.7 µM | > 10 µM | > 10000 nM | – | > 10 µM | > 10 µM | > 10000 nM | > 10 µM | – | – | – | – | – | – | –
CCCCCCc1cn(CCCCCCN2C(=O)CN(/N=C/c3ccc([N+](=O)[O-])o3)C2=O)nn1 | 83.4 µM | > 10 µM | 5300 nM | 16 | > 10 µM | > 10 µM | 480 nM | > 10 µM | 174 | – | – | – | – | – | –
CCCCCCc1cn(CCCCCN2C(=O)CN(/N=C/c3ccc([N+](=O)[O-])o3)C2=O)nn1 | 65.9 µM | > 10 µM | 1500 nM | 44 | > 10 µM | > 10 µM | 610 nM | > 10 µM | 108 | – | – | – | – | – | –
O=C1CN(/N=C/c2ccc([N+](=O)[O-])o2)C(=O)N1CCCn1cc(-c2ccc(F)cc2)nn1 | > 100 µM | > 10 µM | 740 nM | > 135 | > 10 µM | > 10 µM | > 10000 nM | > 10 µM | – | – | – | – | – | – | –
CCCCCCc1cn(CCCN2C(=O)CN(/N=C/c3ccc([N+](=O)[O-])o3)C2=O)nn1 | 16.5 µM | > 10 µM | 480 nM | 34 | 0.84 µM | > 10 µM | > 10000 nM | > 10 µM | – | 0.7 | > 100 µM | 38.5 µM | 119 | – | –
O=C1CN(/N=C/c2ccc([N+](=O)[O-])o2)C(=O)N1CCCn1cc(-c2cc(C(F)(F)F)cc(C(F)(F)F)c2)nn1 | 30.6 µM | > 10 µM | 670 nM | 46 | > 10 µM | > 10 µM | 1200 nM | > 10 µM | 26 | – | – | – | – | – | –
CCCCCc1cn(CCCN2C(=O)CN(/N=C/c3ccc([N+](=O)[O-])o3)C2=O)nn1 | 35.6 µM | > 10 µM | 550 nM | 74 | 0.61 µM | > 10 µM | > 10000 nM | > 10 µM | – | 0.8 | > 100 µM | 50.6 µM | 164 | – | –
Cc1ccc(-c2cn(CCCCCN3C(=O)CN(/N=C/c4ccc([N+](=O)[O-])o4)C3=O)nn2)cc1 | 13.9 µM | > 10 µM | 1860 nM | 8 | > 10 µM | > 10 µM | > 10000 nM | > 10 µM | – | – | – | – | – | – | –
CCCCCCCCc1cn(CCCCCN2C(=O)CN(/N=C/c3ccc([N+](=O)[O-])o3)C2=O)nn1 | 28.6 µM | > 10 µM | > 10000 nM | – | > 10 µM | > 10 µM | > 10000 nM | > 10 µM | – | – | – | – | – | – | –
CCCCCc1ccc(-c2cn(CCCCCN3C(=O)CN(/N=C/c4ccc([N+](=O)[O-])o4)C3=O)nn2)cc1 | 9.73 µM | > 10 µM | > 10000 nM | – | > 10 µM | > 10 µM | > 10000 nM | > 10 µM | – | – | – | – | – | – | –
O=C1CN(/N=C/c2ccc([N+](=O)[O-])o2)C(=O)N1CCCCCn1cc(-c2ccc(F)cc2)nn1 | 37.2 µM | > 10 µM | 980 nM | 40 | > 10 µM | > 10 µM | > 10000 nM | > 10 µM | – | – | – | – | – | – | –
O=C1CN(/N=C/c2ccc([N+](=O)[O-])o2)C(=O)N1CCCCCn1cc(CSc2ccccc2)nn1 | 87.9 µM | > 10 µM | 1700 nM | 52 | > 10 µM | > 10 µM | 10 nM | > 10 µM | 8790 | – | – | – | – | – | –
O=C1CN(/N=C/c2ccc([N+](=O)[O-])o2)C(=O)N1CCCCCCn1cc(-c2cc(C(F)(F)F)cc(C(F)(F)F)c2)nn1 | – | > 10 µM | 800 nM | – | > 10 µM | > 10 µM | 5350 nM | > 10 µM | – | – | – | – | – | – | –
COc1ccc(-c2cn(CCCCCCN3C(=O)CN(/N=C/c4ccc([N+](=O)[O-])o4)C3=O)nn2)cc1 | 5.39 µM | > 10 µM | 590 nM | 9 | > 10 µM | > 10 µM | 230 nM | > 10 µM | 23 | – | – | – | – | – | –
O=C1CN(/N=C/c2ccc([N+](=O)[O-])o2)C(=O)N1CCCn1cc(CSc2ccccc2)nn1 | 37.4 µM | > 10 µM | 670 nM | 56 | > 10 µM | 3.98 µM | > 10000 nM | 9.9 µM | – | – | 3.86 µM | 6.65 µM | – | 1 | 0.2
Cc1ccc(-c2cn(CCCCCCN3C(=O)CN(/N=C/c4ccc([N+](=O)[O-])o4)C3=O)nn2)cc1 | 31.1 µM | > 10 µM | 660 nM | 47 | > 10 µM | > 10 µM | 980 nM | > 10 µM | 32 | – | – | – | – | – | –
CCCCCc1cn(CCCCCCN2C(=O)CN(/N=C/c3ccc([N+](=O)[O-])o3)C2=O)nn1 | 15.5 µM | > 10 µM | 270 nM | 57 | > 10 µM | > 10 µM | > 10000 nM | > 10 µM | – | – | – | – | – | – | –
CCCCc1cn(CCCCCCN2C(=O)CN(/N=C/c3ccc([N+](=O)[O-])o3)C2=O)nn1 | 44.5 µM | > 10 µM | 1190 nM | 37 | > 10 µM | > 10 µM | > 10000 nM | > 10 µM | – | – | – | – | – | – | –
CCCCCCCCc1cn(CCCCCCN2C(=O)CN(/N=C/c3ccc([N+](=O)[O-])o3)C2=O)nn1 | 50.3 µM | > 10 µM | 2620 nM | 19 | > 10 µM | > 10 µM | 110 nM | > 10 µM | 457 | – | – | – | – | – | –
CCCCCCCCc1cn(CCCN2C(=O)CN(/N=C/c3ccc([N+](=O)[O-])o3)C2=O)nn1 | 11.5 µM | > 10 µM | 730 nM | 16 | > 10 µM | > 10 µM | > 10000 nM | > 10 µM | – | – | – | – | – | – | –
CCCCCc1ccc(-c2cn(CCCN3C(=O)CN(/N=C/c4ccc([N+](=O)[O-])o4)C3=O)nn2)cc1 | 79.8 µM | > 10 µM | > 10000 nM | – | > 10 µM | > 10 µM | > 10000 nM | > 10 µM | – | – | – | – | – | – | –
C[C@@H]1[C@H](O)[C@@H](C)/C=C/C=C/C=C/C=C/C=C/C=C/C=C/[C@H](O[C@@H]2O[C@H](C)[C@@H](O)[C@H](N)[C@@H]2O)C[C@@H]2O[C@](O)(C[C@@H](O)C[C@@H](O)[C@H](O)CC[C@@H](O)C[C@@H](O)CC(=O)O[C@H]1C)C[C@H](O)[C@H]2C(=O)O [AMPHOTERICIN B] | – | – | – | – | 0.03 µM | – | – | – | – | – | – | – | – | – | –
CC[C@H]1CN2CCc3cc(OC)c(OC)cc3[C@@H]2C[C@@H]1C[C@H]1NCCc2cc(OC)c(OC)cc21 [EMETINE] | 0.01 µM | – | – | – | – | – | – | – | – | – | – | – | – | – | –
